In patent US20230000769A1, “OIL-IN-WATER EMULSION FORMULATIONS FOR DELIVERY OF ACTIVE OR THERAPEUTIC AGENTS” (IMMUNOVACCINE TECHNOLOGIES INC., priority 2019, published 2023):

Experiment: HPLC analysis of oil (top) and aqueous (bottom) layers of centrifuged O/W emulsions
Format: physicochemical
Details: control or Bottom layer-Water; target 8.00 mg/mL
Method: O/W emulsions were prepared by combining the hydrophobic phase (DPX-empty in Montanide™ ISA 51 oil) and the aqueous phase (containing an aqueous phase agent) with 120 passes through a Vygon™ connector.
For analysis by High Performance Liquid Chromatography (HPLC), the O/W emulsion formulations were centrifuged at 15,000 RPM for 30 minutes to separate oil (top) and aqueous (bottom) layers, and samples from both layers were analysed. Samples were prepared using n-Butanol Extraction method (for oil phase) and Total solubilization method (for aqueous phase). n-Butanol Extraction method (for oil phase): To 100 μL of the top layer oil sample 300 μL of 0.1M NaHCO3 and 400 μL of water saturated 1-Butanol were added. Sample was vortexed to mix and centrifuged for 2 mins at 5000 RPM. The bottom layer was taken for analysis. Total solubilization method (for aqueous phase): To 75 μL of the bottom layer aqueous sample, up to 5 mL of mobile phase A was added. The mobile phases used for cyclophosphamide, oligonucleotide and anti-CTLA4 analysis were as follows, Cyclophosphamide: Mobile Phase A: 30% acetonitrile in water; Mobile Phase B: methanol. Oligonucleotide: Mobile Phase A: mix of tris, acetonitrile, water; Mobile Phase B: mix of tris, NaCL, acetonitrile, water. Anti-CTLA4: Mobile Phase A: 0.1% TFA/water; Mobile Phase B: 0.1% TFA/acetonitrile; Mobile Phase C: methanol. […]

Compound: O=P1(N(CCCl)CCCl)NCCCO1 (stereo not shown) [Cyclophosphamide control, N,N-bis(2-chloroethyl)-1,3,2-oxazaphosphinan-2-amine 2-oxide]
- Cyclophosphamide Concentration: 6.76 mg/mL
